# BindingDB's records for patent US11884671 (AstraZeneca, 2024)
# Key:
# [1] = target: Tyrosine-protein kinase JAK2 (Homo sapiens, UniProt O60674); assay: Enzyme Assay
# Protocol: JAK2: The 2×JAK2/Tyr 06 (ThermoFisher Scientific proprietary) mixture was prepared in 50 mM HEPES pH 7.5, 0.01% BRIJ-35, 10 mM MgCl2, 1 mM EGTA.
# [2] = target: Tyrosine-protein kinase JAK1 (Homo sapiens, UniProt P23458); assay: Enzyme Assay
# Protocol: JAK1: The 2×JAK/Tyr 06 (ThermoFisher Scientific proprietary) mixture was prepared in 50 mM HEPES pH 6.5, 0.01% BRIJ-35, 10 mM MgCl2, 1 mM EGTA, 0.02% NaN3.
# [3] = target: T1, Tyrosine-protein kinase JAK3 (Homo sapiens, UniProt P52333); assay: Enzyme Assay
# T1 sequence (P52333 whole entry): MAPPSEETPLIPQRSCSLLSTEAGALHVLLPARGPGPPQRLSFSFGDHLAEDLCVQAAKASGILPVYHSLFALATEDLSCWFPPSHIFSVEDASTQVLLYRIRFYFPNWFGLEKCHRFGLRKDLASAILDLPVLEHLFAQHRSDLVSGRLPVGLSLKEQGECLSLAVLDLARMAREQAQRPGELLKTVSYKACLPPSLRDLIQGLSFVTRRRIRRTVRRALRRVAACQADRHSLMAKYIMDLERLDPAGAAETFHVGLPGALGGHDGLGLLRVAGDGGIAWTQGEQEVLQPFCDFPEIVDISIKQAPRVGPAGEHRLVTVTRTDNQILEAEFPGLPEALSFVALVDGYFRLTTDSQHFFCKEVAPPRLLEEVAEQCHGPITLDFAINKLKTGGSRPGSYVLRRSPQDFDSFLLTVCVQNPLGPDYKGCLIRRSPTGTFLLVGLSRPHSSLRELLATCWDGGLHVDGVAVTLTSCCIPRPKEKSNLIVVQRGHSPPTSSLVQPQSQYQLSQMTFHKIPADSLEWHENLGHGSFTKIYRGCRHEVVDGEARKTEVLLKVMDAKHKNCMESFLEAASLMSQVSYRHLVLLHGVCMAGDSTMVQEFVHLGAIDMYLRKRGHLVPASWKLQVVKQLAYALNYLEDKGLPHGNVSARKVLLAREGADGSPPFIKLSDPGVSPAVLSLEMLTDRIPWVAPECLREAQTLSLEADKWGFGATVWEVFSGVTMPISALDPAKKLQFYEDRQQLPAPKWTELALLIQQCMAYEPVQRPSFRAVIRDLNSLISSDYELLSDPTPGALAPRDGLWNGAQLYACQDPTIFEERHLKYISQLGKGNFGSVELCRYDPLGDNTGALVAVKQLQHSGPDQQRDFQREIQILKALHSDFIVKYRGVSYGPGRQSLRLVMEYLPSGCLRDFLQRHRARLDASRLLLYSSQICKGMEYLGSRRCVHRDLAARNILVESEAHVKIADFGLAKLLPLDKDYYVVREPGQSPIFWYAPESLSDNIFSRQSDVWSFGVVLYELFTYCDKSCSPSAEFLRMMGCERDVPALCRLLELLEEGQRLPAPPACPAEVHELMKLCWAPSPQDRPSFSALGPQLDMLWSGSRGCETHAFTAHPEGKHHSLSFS
# Protocol: JAK3: The 2×JAK3/Tyr 06 (ThermoFisher Scientific proprietary) mixture was prepared in 50 mM HEPES pH 7.5. 0.01% BRIJ-35, 10 mM MgCl2, 1 mM EGTA.
# Aurora kinase B = Aurora kinase B (Homo sapiens, UniProt Q96GD4); assay: Enzyme Assay
# Aurora kinase B, sequence (Q96GD4 whole entry): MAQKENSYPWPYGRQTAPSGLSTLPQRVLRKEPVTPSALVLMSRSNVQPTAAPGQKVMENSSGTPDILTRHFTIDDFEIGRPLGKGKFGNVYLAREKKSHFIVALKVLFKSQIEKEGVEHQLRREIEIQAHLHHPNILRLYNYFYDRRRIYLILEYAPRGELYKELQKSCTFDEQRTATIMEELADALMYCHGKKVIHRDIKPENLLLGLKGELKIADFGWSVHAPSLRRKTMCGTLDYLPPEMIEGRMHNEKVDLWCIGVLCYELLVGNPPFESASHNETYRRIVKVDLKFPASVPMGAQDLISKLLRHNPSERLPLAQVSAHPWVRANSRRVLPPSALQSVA
# Protocol: Aurora B (AurB): The 2×AURKB (Aurora B)/Ser/Thr 01 (ThermoFisher Scientific proprietary) mixture was prepared in 50 mM HEPES pH 7.5, 0.01% BRIJ-35, 10 mM MgCl2, 1 mM EGTA.
# [4] = target: T2, Dual specificity protein kinase TTK (Homo sapiens, UniProt P33981); assay: TTK Enzyme Assay
# T2 sequence (P33981 whole entry): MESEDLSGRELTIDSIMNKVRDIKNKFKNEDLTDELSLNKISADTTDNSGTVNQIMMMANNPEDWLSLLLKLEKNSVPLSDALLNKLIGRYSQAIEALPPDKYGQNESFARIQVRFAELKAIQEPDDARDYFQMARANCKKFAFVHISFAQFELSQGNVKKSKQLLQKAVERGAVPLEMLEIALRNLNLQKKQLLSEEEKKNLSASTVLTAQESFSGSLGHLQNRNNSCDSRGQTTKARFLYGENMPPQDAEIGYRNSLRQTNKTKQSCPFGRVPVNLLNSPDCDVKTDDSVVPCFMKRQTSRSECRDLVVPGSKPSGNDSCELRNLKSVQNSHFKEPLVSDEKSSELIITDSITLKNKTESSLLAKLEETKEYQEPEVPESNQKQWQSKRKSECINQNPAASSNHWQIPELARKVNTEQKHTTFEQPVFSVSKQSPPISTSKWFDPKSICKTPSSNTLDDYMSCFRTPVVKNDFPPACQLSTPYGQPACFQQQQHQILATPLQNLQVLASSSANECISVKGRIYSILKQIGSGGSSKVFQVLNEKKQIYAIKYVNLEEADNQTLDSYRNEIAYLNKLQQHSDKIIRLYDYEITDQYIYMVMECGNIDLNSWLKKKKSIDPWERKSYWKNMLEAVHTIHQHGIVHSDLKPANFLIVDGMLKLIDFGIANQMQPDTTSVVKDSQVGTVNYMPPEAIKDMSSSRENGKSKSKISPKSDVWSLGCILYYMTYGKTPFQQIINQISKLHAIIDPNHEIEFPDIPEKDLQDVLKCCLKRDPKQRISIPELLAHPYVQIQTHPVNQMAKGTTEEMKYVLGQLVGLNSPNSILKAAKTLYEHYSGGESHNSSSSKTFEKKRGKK
# Protocol: The inhibitory activity of compounds against TTK was determined in a LanthaScreen Eu Kinase Binding assay run by ThermoFisher Scientific as part of their SelectScreen Biochemical Kinase Profiling Service. The LanthaScreen Eu Kinase Binding assay format uses binding of an Alexa Fluor conjugate or tracer to a kinase, which is detected by addition of a Eu-labeled anti-tag antibody. […] Plates were then read using a fluorescence plate reader.
# Aurora kinase A = target: T3, Aurora kinase A (Homo sapiens, UniProt O14965)
# T3 sequence (O14965 whole entry): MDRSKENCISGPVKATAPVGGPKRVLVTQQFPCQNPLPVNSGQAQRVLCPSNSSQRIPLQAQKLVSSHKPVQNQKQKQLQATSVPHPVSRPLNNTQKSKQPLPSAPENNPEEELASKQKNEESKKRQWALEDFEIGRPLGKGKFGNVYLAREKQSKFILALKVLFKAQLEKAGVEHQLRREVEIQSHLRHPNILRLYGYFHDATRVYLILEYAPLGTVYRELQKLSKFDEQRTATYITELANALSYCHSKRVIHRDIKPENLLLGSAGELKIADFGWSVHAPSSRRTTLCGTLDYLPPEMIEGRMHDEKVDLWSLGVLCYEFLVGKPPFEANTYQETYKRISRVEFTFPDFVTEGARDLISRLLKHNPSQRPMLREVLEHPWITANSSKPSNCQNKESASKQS
# Tyrosine-protein kinase JAK2, sequence (O60674 whole entry): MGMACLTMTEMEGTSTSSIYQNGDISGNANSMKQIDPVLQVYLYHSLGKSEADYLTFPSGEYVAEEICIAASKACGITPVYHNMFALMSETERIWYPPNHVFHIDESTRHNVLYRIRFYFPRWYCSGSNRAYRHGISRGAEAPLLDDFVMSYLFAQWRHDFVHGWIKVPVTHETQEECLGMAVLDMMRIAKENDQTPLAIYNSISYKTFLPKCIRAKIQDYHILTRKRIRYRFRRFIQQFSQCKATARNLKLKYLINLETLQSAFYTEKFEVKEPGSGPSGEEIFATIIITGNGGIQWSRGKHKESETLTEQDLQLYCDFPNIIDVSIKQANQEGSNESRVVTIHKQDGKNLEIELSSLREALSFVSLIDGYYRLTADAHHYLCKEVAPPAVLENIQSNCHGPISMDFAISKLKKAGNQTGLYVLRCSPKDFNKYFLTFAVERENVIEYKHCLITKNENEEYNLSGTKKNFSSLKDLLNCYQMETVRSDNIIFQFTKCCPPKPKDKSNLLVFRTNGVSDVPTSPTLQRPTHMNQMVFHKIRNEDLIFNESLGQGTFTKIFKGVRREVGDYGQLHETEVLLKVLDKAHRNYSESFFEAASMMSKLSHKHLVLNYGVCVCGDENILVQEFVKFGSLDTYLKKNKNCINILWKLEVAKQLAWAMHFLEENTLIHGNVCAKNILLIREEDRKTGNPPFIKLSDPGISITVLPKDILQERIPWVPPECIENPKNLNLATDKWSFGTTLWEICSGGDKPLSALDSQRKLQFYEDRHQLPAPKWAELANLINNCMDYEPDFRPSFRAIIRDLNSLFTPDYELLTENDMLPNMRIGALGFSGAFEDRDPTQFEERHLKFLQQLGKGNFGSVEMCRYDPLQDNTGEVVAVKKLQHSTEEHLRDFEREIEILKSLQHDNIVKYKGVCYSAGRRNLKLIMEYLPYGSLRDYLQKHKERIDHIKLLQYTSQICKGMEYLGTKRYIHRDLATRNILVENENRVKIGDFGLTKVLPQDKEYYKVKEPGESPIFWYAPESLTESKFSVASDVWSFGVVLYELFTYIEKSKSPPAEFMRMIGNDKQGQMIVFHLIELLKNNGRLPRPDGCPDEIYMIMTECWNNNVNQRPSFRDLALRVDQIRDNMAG
# Tyrosine-protein kinase JAK1, sequence (P23458 whole entry): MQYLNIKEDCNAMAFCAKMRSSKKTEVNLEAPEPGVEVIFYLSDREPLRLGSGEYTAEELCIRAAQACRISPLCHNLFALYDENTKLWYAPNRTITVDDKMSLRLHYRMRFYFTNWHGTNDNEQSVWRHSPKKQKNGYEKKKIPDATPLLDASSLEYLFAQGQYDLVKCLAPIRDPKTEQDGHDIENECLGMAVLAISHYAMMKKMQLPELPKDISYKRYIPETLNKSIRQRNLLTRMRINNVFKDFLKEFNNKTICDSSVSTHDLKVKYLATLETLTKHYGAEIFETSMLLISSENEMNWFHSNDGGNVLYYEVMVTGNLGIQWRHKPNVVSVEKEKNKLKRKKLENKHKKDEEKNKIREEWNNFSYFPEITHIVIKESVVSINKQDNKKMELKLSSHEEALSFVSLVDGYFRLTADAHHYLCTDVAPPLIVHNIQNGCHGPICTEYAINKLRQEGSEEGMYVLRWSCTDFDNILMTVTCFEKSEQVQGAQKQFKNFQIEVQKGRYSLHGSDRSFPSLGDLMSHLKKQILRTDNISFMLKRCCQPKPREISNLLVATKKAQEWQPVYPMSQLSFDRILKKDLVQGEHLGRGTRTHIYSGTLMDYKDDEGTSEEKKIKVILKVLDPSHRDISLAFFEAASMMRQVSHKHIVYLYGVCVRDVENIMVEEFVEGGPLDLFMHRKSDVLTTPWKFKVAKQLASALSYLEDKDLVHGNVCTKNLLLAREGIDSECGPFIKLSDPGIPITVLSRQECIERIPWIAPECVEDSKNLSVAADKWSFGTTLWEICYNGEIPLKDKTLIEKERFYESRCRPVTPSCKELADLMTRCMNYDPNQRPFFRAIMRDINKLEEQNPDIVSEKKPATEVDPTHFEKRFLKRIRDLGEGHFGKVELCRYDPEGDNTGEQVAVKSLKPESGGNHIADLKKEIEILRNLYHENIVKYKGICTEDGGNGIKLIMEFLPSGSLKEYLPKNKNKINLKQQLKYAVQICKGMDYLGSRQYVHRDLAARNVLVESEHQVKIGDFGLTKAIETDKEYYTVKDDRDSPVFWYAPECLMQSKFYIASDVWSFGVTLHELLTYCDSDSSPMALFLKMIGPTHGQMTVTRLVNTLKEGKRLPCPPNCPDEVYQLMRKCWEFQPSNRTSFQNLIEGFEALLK
Compound,IC50 [1],IC50 [2],IC50 [3],IC50 (Aurora kinase B),IC50 [4],IC50 (Aurora kinase A)
"Cc1cc2ncccc2cc1Nc1ncc2c(n1)n([C@H]1CC[C@@](C)(O)CC1)c(=O)n2C [US11884671, Example 14]",> 10 µM,> 10 µM,> 10 µM,> 10 µM,0.1 µM,> 10 µM
"Cc1cc2nnccc2cc1Nc1ncc2c(n1)n([C@H]1CC[C@](C)(O)CC1)c(=O)n2C [US11884671, Example 17]",> 10 µM,> 10 µM,> 10 µM,> 10 µM,0.316 µM,> 10 µM
"Cc1cc2nnccc2cc1Nc1ncc2c(n1)n([C@H]1CC[C@@](C)(O)CC1)c(=O)n2C [US11884671, Example 16]",> 10 µM,> 10 µM,> 10 µM,> 10 µM,0.2 µM,> 10 µM
"Cc1cc2ncccc2cc1Nc1ncc2c(n1)n([C@H]1CC[C@](C)(O)CC1)c(=O)n2C [US11884671, Example 15]",> 10 µM,> 10 µM,> 10 µM,> 10 µM,0.251 µM,> 10 µM
